# Data taken from patent publication US20230398130A1, “METHODS AND COMPOSITIONS FOR DIFFERENTIATING STEM CELLS” (Massachusetts Institute of Technology, priority 2020, published 2023).
# Tests used:
# [1] = test system: ISC-enriched organoids; experiment: Primary screen, 384-well 2.5-D organoid differentiation (ENR+CD, 6 days): basal lysozyme secretion (LYZ.NS); format: cell-based, murine; details: for Dose.FC.LYZ.NS (log 2 fold change, basal lysozyme secretion): vs plate median; for Dose.FC.LYZ.NS: ENR+CD, 6 days, FC vs plate median; for Z.LYZ.NS: standard z score of FC; for SSMD.LYZ.NS: strictly standardized mean difference, primary screen
# Text: (§1) High-throughput screening.
# [2] = test system: ISC-enriched organoids; experiment: Primary screen, 384-well 2.5-D organoid differentiation (ENR+CD, 6 days): carbachol-induced lysozyme secretion (LYZ.S); format: cell-based, murine; details: for Dose.FC.LYZ.S (log 2 fold change, carbachol-induced lysozyme secretion): vs plate median; for Dose.FC.LYZ.S: ENR+CD, 6 days, FC vs plate median; for Z.LYZ.S: standard z score; for Z.LYZ.S / SSMD.LYZ.S: primary screen; for SSMD.LYZ.S: strictly standardized mean difference
# Text: as §1
# [3] = test system: ISC-enriched organoids; experiment: Primary screen, 384-well 2.5-D organoid differentiation (ENR+CD, 6 days, Target Selective Inhibitor Library, vs whole-plate median): ATP (CellTiter-Glo 3D, CTG); details: for Dose.FC.CTG (log 2 fold change, ATP): vs plate median; for Dose.FC.CTG: ENR+CD, 6 days, FC vs plate median; for SSMD.CTG: strictly standardized mean difference
# [4] = 1st of the 4 dose lines of the treatment (dose not given)
# [5] = 2nd of the 4 dose lines of the treatment (dose not given)
# [6] = 3rd of the 4 dose lines of the treatment (dose not given)
# [7] = 4th of the 4 dose lines of the treatment (dose not given)
compound,measurement,setting,value
"CCCS(=O)(=O)Nc1ccc(F)c(C(=O)c2c[nH]c3ncc(-c4ccc(Cl)cc4)cc23)c1F [Vemurafenib (PLX4032, RG7204)]",Z.LYZ.NS (standard z score),[1]; dose 0.08 uM,0.786
same,"Dose.FC.LYZ.NS (log 2 fold change, basal lysozyme secretion)",[1]; dose 0.08 uM,0.090
same,Z.LYZ.NS (standard z score),[1]; dose 0.40 uM,0.462
same,"Dose.FC.LYZ.NS (log 2 fold change, basal lysozyme secretion)",[1]; dose 0.40 uM,0.053
same,Z.LYZ.NS (standard z score),[1]; dose 2.00 uM,0.411
same,"Dose.FC.LYZ.NS (log 2 fold change, basal lysozyme secretion)",[1]; dose 2.00 uM,0.047
same,Z.LYZ.NS (standard z score),[1]; dose 10.00 uM,0.263
same,"Dose.FC.LYZ.NS (log 2 fold change, basal lysozyme secretion)",[1]; dose 10.00 uM,0.030
same,"Dose.FC.LYZ.S (log 2 fold change, carbachol-induced lysozyme secretion)",[2]; dose 0.08 uM,0.120
same,"Dose.FC.LYZ.S (log 2 fold change, carbachol-induced lysozyme secretion)",[2]; dose 0.40 uM,0.150
same,"Dose.FC.LYZ.S (log 2 fold change, carbachol-induced lysozyme secretion)",[2]; dose 2.00 uM,0.055
same,"Dose.FC.LYZ.S (log 2 fold change, carbachol-induced lysozyme secretion)",[2]; dose 10.00 uM,0.022
same,Z.CTG (standard z score),[3]; dose 0.08 uM,0.297
same,"Dose.FC.CTG (log 2 fold change, ATP)",[3]; dose 0.08 uM,0.124
same,Z.CTG (standard z score),[3]; dose 0.40 uM,−0.195
same,"Dose.FC.CTG (log 2 fold change, ATP)",[3]; dose 0.40 uM,−0.082
same,Z.CTG (standard z score),[3]; dose 2.00 uM,−0.014
same,"Dose.FC.CTG (log 2 fold change, ATP)",[3]; dose 2.00 uM,−0.006
same,Z.CTG (standard z score),[3]; dose 10.00 uM,0.073
same,"Dose.FC.CTG (log 2 fold change, ATP)",[3]; dose 10.00 uM,0.030
COc1ccc(C[C@@H](C)NC[C@H](O)c2ccc(O)c(NC=O)c2)cc1.COc1ccc(C[C@@H](C)NC[C@H](O)c2ccc(O)c(NC=O)c2)cc1.O=C(O)/C=C/C(=O)O [Formoterol Hemifumarate],Dose.FC.LYZ.NS,[1]; Dose 0.08 uM,0.145 log 2 fold change
same,Z.LYZ.NS,[1]; Dose 0.08 uM,1.263
same,Dose.FC.LYZ.NS,[1]; Dose 0.40 uM,0.073 log 2 fold change
same,Z.LYZ.NS,[1]; Dose 0.40 uM,0.638
same,Dose.FC.LYZ.NS,[1]; Dose 2.00 uM,0.048 log 2 fold change
same,Z.LYZ.NS,[1]; Dose 2.00 uM,0.420
same,Dose.FC.LYZ.NS,[1]; Dose 10.00 uM,0.013 log 2 fold change
same,Z.LYZ.NS,[1]; Dose 10.00 uM,0.114
same,Dose.FC.LYZ.S,[2]; Dose 0.08 uM,0.206 log 2 fold change
same,Dose.FC.LYZ.S,[2]; Dose 0.40 uM,0.293 log 2 fold change
same,Dose.FC.LYZ.S,[2]; Dose 2.00 uM,0.090 log 2 fold change
same,Dose.FC.LYZ.S,[2]; Dose 10.00 uM,0.011 log 2 fold change
same,Dose.FC.CTG,[3]; Dose 0.08 uM,0.294 log 2 fold change
same,Z.CTG,"[3]; Dose 0.08 uM, standard z score of FC",0.703
same,Dose.FC.CTG,[3]; Dose 0.40 uM,0.265 log 2 fold change
same,Z.CTG,"[3]; Dose 0.40 uM, standard z score of FC",0.633
same,Dose.FC.CTG,[3]; Dose 2.00 uM,0.242 log 2 fold change
same,Z.CTG,"[3]; Dose 2.00 uM, standard z score of FC",0.578
same,Dose.FC.CTG,[3]; Dose 10.00 uM,0.253 log 2 fold change
same,Z.CTG,"[3]; Dose 10.00 uM, standard z score of FC",0.604
CCc1c2c(nc3ccc(OC(=O)N4CCC(N5CCCCC5)CC4)cc13)-c1cc3c(c(=O)n1C2)COC(=O)[C@]3(O)CC [Irinotecan],SSMD.LYZ.NS,[1]; [4],−0.217
same,SSMD.LYZ.NS,[1]; [5],−0.556
same,SSMD.LYZ.NS,[1]; [6],−1.415
same,SSMD.LYZ.NS,[1]; [7],−1.102
same,Z.LYZ.S,[2]; [4],−0.023
same,Z.LYZ.S,[2]; [5],−0.939
same,Z.LYZ.S,[2]; [6],−1.596
same,Z.LYZ.S,[2]; [7],−1.624
same,SSMD.LYZ.S,[2]; [4],−0.018
same,SSMD.LYZ.S,[2]; [5],−0.721
same,SSMD.LYZ.S,[2]; [6],−1.400
same,SSMD.LYZ.S,[2]; [7],−1.217
same,Z.CTG,"[3]; Dose 0.08 uM, primary screen, standard z score",−0.265
same,Z.CTG,"[3]; Dose 0.40 uM, primary screen, standard z score",−1.872
same,Z.CTG,"[3]; Dose 2.00 uM, primary screen, standard z score",−1.875
same,Z.CTG,"[3]; Dose 10.00 uM, primary screen, standard z score",−2.951
same,SSMD.CTG,"[3]; primary screen, 1st of the 4 dose lines of the treatment (dose not given)",−0.378
same,SSMD.CTG,"[3]; primary screen, 2nd of the 4 dose lines of the treatment (dose not given)",−1.558
same,SSMD.CTG,"[3]; primary screen, 3rd of the 4 dose lines of the treatment (dose not given)",−1.491
same,SSMD.CTG,"[3]; primary screen, 4th of the 4 dose lines of the treatment (dose not given)",−2.716
